In patent publication US6958416B2, “Valproyltaurinamide derivatives as anticonvulsant amd CNS active agents” (Yissum Research Development Company of the Hebrew …, priority 2001, dated 2005):
Read-outs that look alike come from different tables or passages of the source.

Experiments:
[1] = system: maximal electroshock seizure (MES); experiment: maximal electroshock seizure test (MES); type: in vivo; conditions: rats; for anticonvulsant activity in the MES test: result in words; for ED50: Rattus norvegicus
From the text: (§1) The first model the maximal electroshock seizure test (MES), is used to show efficacy for antiepileptic agents against partial and generalized seizure type epilepsy, the common epilepsy among therapy resistant epileptic patients. The second model, the subcutaneous pentylenetetrazole test (s.c. Met) which measures seizure threshold and is a standard screening procedure to show efficacy for agents against […] seizures. In these studies, convulsions were inhibited or prevented after oral (p.o.) and intraperitoneal (ip) administration of the compounds.

[2] = Neurotoxicity, Gait and Stance test
Method: Neurotoxicity of the agents was assessed in rats (p.o. and ip administration) in the Gait and Stance test and in mice in the Rotarod Ataxia test, which assess minimal neurotoxicity.

audiogenic seizures = audiogenic seizures in Frings audiogenic seizure susceptible mice; type: in vivo; conditions: for potency compared with VPA in audiogenic seizure model: in words
Method: In mice the compounds were tested for their ability to protect against audiogenic seizures in the Frings audiogenic seizure susceptible mice after ip administration. This model is considered as a good screening model in pharmacologic studies for CNS active compounds.

[3] = system: subcutaneous pentylenetetrazole induced convulsions (seizure threshold); experiment: subcutaneous pentylenetetrazole test (s.c. Met); type: in vivo; conditions: rats, table title: oral administration; for ED50: Rattus norvegicus, read-out: sc Met ED50
From the text: as §1

[4] = Pharmacokinetics in mongrel dogs; type: in vivo
Method: The pharmacokinetics of Compound A were evaluated in mongrel dogs.

6 Hz psychomotor seizure = 6 Hz psychomotor seizure model; type: in vivo; conditions: Mus musculus; mice ip, stimulation intensity 22 mA
[5] = po, p.o. administration, read-out: MES ED50 (mg/kg po)

CCCC(CCC)C(=O)NCCS(=O)(=O)N(C)C [B, N-(2-Propylpentanoyl)taurine-N′,N′-dimethylamide]
MES ED50 (mg/kg ip) ([1]; ip administration): 50 mg/kg | MES ED50 (mg/kg po) ([1]; p.o. administration): >160 mg/kg | anticonvulsant activity in the MES test [1]: showed anticonvulsant activity | Neurotoxicity TD50 (mg/kg ip) ([2]; rats, ip administration): 175 mg/kg | TD50 compared with VPA ([2]; rats, in words): significantly higher than TD50 for VPA | Audiogenic seizures ED50 (audiogenic seizures; ip administration): 134 mg/kg | potency compared with VPA in audiogenic seizure model (audiogenic seizures; ip): more potent than VPA | sc Met ED50 [3]: >200 mg/kg

CCCC(CCC)C(=O)NCCS(=O)(=O)NC(C)C [C, N-(2-Propylpentanoyl)taurine-N′-isopropylamide]
MES ED50 (mg/kg ip) ([1]; ip administration): 52 mg/kg | MES ED50 (mg/kg po) ([1]; p.o. administration): 63 mg/kg | anticonvulsant activity in the MES test [1]: showed anticonvulsant activity | Neurotoxicity TD50 (mg/kg ip) ([2]; rats, ip administration): 627 mg/kg | TD50 compared with VPA ([2]; rats, in words): significantly higher than TD50 for VPA | Audiogenic seizures ED50 (audiogenic seizures; ip administration): 126 mg/kg | potency compared with VPA in audiogenic seizure model (audiogenic seizures; ip): more potent than VPA | sc Met ED50 [3]: >250 mg/kg

CCCC(CCC)C(=O)NCCS(N)(=O)=O [Compound A, N-(2-Propylpentanoyl)taurinamide]
half-life ([4]; dog, in vivo): 5.6 h | Vd ([4]; dog, in vivo, read-out: Volume of distribution at steady state (Vss)): 0.84 L/kg | clearance ([4]; dog, in vivo, read-out: total body clearance (CL) (converted)): 1.83 mL/min/kg | liver extraction ratio ([4]; in words): low | ED50 [1, 5]: 65 mg/kg | ED50 ([1]; ip administration, read-out: MES ED50 (mg/kg ip)): 50 mg/kg | anticonvulsant activity in the MES test [1]: showed anticonvulsant activity | ED50 (6 Hz psychomotor seizure): 188 mg/kg | TD50 compared with VPA ([2]; rat, in vivo): significantly higher than TD50 for VPA | Neurotoxicity TD50 (mg/kg ip) ([2]; rat, in vivo, ip): >300 mg/kg | TD50 ([2]; rat, in vivo, ip): > 300 mg/kg | Neurotoxicity TD50 (mg/kg po) ([2]; rat, in vivo, po): >500 mg/kg | TD50 ([2]; rat, in vivo, po): > 500 mg/kg | ED50 (audiogenic seizures; Mus musculus, ip, ip administration): 50 to 140 mg/kg | Audiogenic seizures ED50 (audiogenic seizures; ip administration): 51 mg/kg | audiogenic seizure ED50 compared with VPA (audiogenic seizures; ip, relative to VPA): 3 times lower | ED50 [3]: > 250 mg/kg

CCCC(CCC)C(=O)NCCS(=O)(=O)N(CC)CC [N-(2-n-propylpentanoyl)taurine-N′,N′-diethylamide]
anticonvulsant activity in the MES test [1]: showed anticonvulsant activity

CCCC(CCC)C(=O)NCCS(=O)(=O)NCC [N-(2-n-propylpentanoyl)taurine-N′-ethylamide]
anticonvulsant activity in the MES test [1]: showed anticonvulsant activity

CCCC(CCC)C(=O)NCCS(=O)(=O)NC [N-(2-n-propylpentanoyl)taurine-N′-methylamide]
anticonvulsant activity in the MES test [1]: showed anticonvulsant activity

CCCC(CCC)C(=O)O [VPA, valproic acid, reference compound]
ED50 [1, 5]: 490 mg/kg | TD50 ([2]; rat, in vivo, po): 200 mg/kg | ED50 [3]: 180 mg/kg
